According to patent US6974824B2, “Kappa opioid receptor ligands” (Research Triangle Institute, priority 2001, dated 2005):
Like-named read-outs stand apart in the source and are kept apart here.

Legend:
[1] = target: mu opioid receptor (UniProt P33535); assay: Radioligand competitive binding, [3H]DAMGO; conditions: read-out: K1 (nM ± SD) μ [3H]DAMGO
[2] = target: delta opioid receptor (UniProt P33533); assay: Radioligand competitive binding, [3H]DADLE
[3] = system: kappa opioid receptor; assay: Radioligand competitive binding, [3H]U69,593; conditions: ratio of binding Ki values, Table 1
[4] = target: T1, kappa opioid receptor (Cavia porcellus, UniProt P41144); assay: Radioligand competitive binding, [3H]U69,593; conditions: for Ki: read-out: K1 (nM ± SD) κ [3H]U69,593, radioligand binding, [3H]U69,593
[5] = target: T2, delta opioid receptor (Cavia porcellus, UniProt A0A286XTF2); assay: biochemical
[6] = target: mu opioid receptor (Cavia porcellus, UniProt A0ACM8Q262); assay: Inhibition of DAMGO-stimulated [35S]GTP-γ-S binding in guinea pig caudate; assay type: biochemical; conditions: read-out: Apparent Functional Ki (nM ± SD) μ DAMGO
[7] = target: T1, kappa opioid receptor; assay: Inhibition of U69,593-stimulated [35S]GTP-γ-S binding in guinea pig caudate
[8] = target: cloned human kappa opioid receptor (Homo sapiens, UniProt P41145); assay: Inhibition of U69,593-stimulated [35S]GTP-γ-S binding in cloned human opioid receptors; conditions: cloned human functional assay versus binding assay
[9] = target: T2, delta opioid receptor; conditions: read-out: Apparent Functional Ki (nM ± SD) δ DADLE; [35S]GTP-γ-S, guinea pig caudate, SNC-80-stimulated (footnote b)
[10] = read-out: K1 (nM ± SD) δ [3H]DADLE; radioligand binding, [3H]DADLE
[11] = radioligand binding, [3H]DADLE; read-out: K1 (nM ± SD) δ [3H]DADLE

| SMILES | Ki [1] | Ki [2, 10] | δ/κ [3] | μ/κ [3] | Ki [4] | Ki [2, 11] | also measured |
| --- | --- | --- | --- | --- | --- | --- | --- |
| CC(C)[C@@H](CN1CC[C@@](C)(c2cccc(O)c2)[C@@H](C)C1)NC(=O)[C@@H]1Cc2ccc(O)cc2CN1C [Compound 18, (3S)-7-Hydroxy-N-((1S)-1-{[(3R,4R)-4-(3-hydroxyphenyl)-3,4-dimethyl-1-piperidinyl]methyl}-2-methylpropyl)-2-methyl-1,2,3,4-tetrahydro-3-isoquinolinecarboxamide] | 37 ± 1.4 nM | 616 ± 59 nM | 11622 | 700 | – | – | potency relative to the reference compound nor-BNI (6) ([4]; opioid receptor binding data, kappa): 20 fold |
| CC(C)[C@@H](CN1CC[C@@](C)(c2cccc(O)c2)[C@@H](C)C1)NC[C@H]1Cc2ccc(O)cc2CN1 [Compound 19, (3R)-3-{[((1S)-1-{[(3R,4R)-4-(3-Hydroxyphenyl)-3,4-dimethyl-1-piperidinyl]methyl}-2-methylpropyl)amino]methyl}-1,2,3,4-tetrahydro-7-isoquinolinol] | – | – | – | – | 0.63 ± 0.05 nM | – | Ki ([2]; read-out: K1 (nM ± SD) δ [3H]DADLE): 5570 ± 713 nM |
| CC(C)[C@@H](CN1CC[C@@](C)(c2cccc(O)c2)[C@@H](C)C1)NC(=O)[C@H]1Cc2ccc(O)cc2CN1C(=O)CN(C)C [Compound 17, (3R)-2-(N,N-Dimethylglycyl)-7-hydroxy-N-((1S)-1-{[(3R,4R)-4-(3-hydroxyphenyl)-3,4-dimethyl-1-piperidinyl]methyl}-2-methylpropyl)-1,2,3,4-tetrahydro-3-isoquinolinecarboxamide] | 164 ± 10.5 nM | > 3400 nM | >219 | 11 | 15 ± 1.2 nM | – | – |
| CC(C)[C@@H](CN1CC[C@@](C)(c2cccc(O)c2)[C@@H](C)C1)NC(=O)[C@@H]1Cc2ccc(O)cc2CN1 [Compound 15, (3S)-7-Hydroxy-N-((1S)-1-{[(3R,4R)-4-(3-hydroxyphenyl)-3,4-dimethyl-1-piperidinyl]methyl}-2-methylpropyl)-1,2,3,4-tetrahydro-3-isoquinolinecarboxamide] | 596 ± 29 nM | – | – | – | 9.8 ± 1.6 nM | > 4900 nM | – |
| CC(C)[C@@H](CN1CC[C@@](C)(c2cccc(O)c2)[C@@H](C)C1)NC(=O)[C@H]1Cc2ccc(O)cc2CN1 [Compound 14, (3R)-7-Hydroxy-N-((1S)-1-{[(3R,4R)-4-(3-hydroxyphenyl)-3,4-dimethyl-1-piperidinyl]methyl}-2-methylpropyl)-1,2,3,4-tetrahydro-3-isoquinolinecarboxamide] | 3.73 ± 0.17 nM | – | – | – | – | 301 ± 50 nM | Ki [5]: > 300 nM; Ki [6]: 2.16 ± 0.75 nM; Ki [7]: 0.02 nM; improvement in kappa receptor Ki compared with the binding assay [8]: 53 fold |
| CC(C)[C@@H](CN1CC[C@@](C)(c2cccc(O)c2)[C@@H](C)C1)NC[C@H]1Cc2ccc(O)cc2CN1C [Compound 20, (3R)-3-{[((1S)-1-{[(3R,4R)-4-(3-Hydroxyphenyl)-3,4-dimethyl-1-piperidinyl]methyl}-2-methylpropyl)amino]methyl}-2-methyl-1,2,3,4-tetrahydro-7-isoquinolinol] | 59 ± 2.5 nM | – | 4056 | 107 | 0.55 ± 0.04 nM | 2230 ± 187 nM | – |
| Oc1ccc2c3c1O[C@H]1c4[nH]c5c(c4C[C@@]4(O)[C@@H](C2)N(CC2CC2)CC[C@]314)C[C@@]1(O)[C@H]2Cc3ccc(O)c4c3[C@@]1(CCN2CC1CC1)[C@H]5O4 [6, nor-BNI, nor-binaltorphimine, reference compound] | – | 86 nM | – | – | – | – | Ki [6]: 16.7 nM; Ki [9]: 10.2 nM |
| CC(C)[C@@H](CN1CC[C@@](C)(c2cccc(O)c2)[C@@H](C)C1)NC(=O)[C@H]1Cc2ccccc2CN1 [Compound 16, (3R)-N-((1S)-1-{[(3R,4R)-4-(3-Hydroxyphenyl)-3,4-dimethyl-1-piperidinyl]methyl}-2-methylpropyl)-1,2,3,4-tetrahydro-3-isoquinolinecarboxamide] | 775 ± 75 nM | > 4900 nM | >2333 | 369 | 2.1 nM | – | – |
| CC(C)[C@@H](CN1CC[C@](C)(c2cccc(O)c2)[C@H](C)C1)NC(=O)[C@H]1Cc2ccc(O)cc2CN1 [Compound 21, (3R)-7-Hydroxy-N-((1S)-1-{[(3S,4S)-4-(3-hydroxyphenyl)-3,4-dimethyl-1-piperidinyl]methyl}-2-methylpropyl)-1,2,3,4-tetrahydro-3-isoquinolinecarboxamide] | 138 ± 8 nM | – | – | – | 17.5 ± 2.5 nM | 144 ± 15 nM | – |
